Like-named read-outs stand apart in the source and are kept apart here.
Legend:
prostate cancer [1] = details: adjuvant arm after prostatic and pelvic radiation therapy; T3, N0, or any T, N1, M0 disease; 71% on observation arm, p=0.52; cited from earlier work
colorectal adenomas = details: cited from earlier work
prostate cancer [2] = details: for men diagnosed with prostate cancer: 345 men randomized to calcium; for adjusted odds ratio for prostate cancer: calcium vs placebo, 1200 mg elemental calcium (as carbonate); for toxicity: four years of treatment, 3000 mg calcium carbonate
Description: To investigate this issue in a randomized study, we investigated the association between prostate cancer risk and treatment assignment in a large, double blind chemoprevention trial of calcium carbonate supplementation for the prevention of large bowel adenomas. Treatment was for four years in two randomized groups: placebo or 1200 mg elemental calcium (as carbonate).
The Calcium Polyp Prevention Study from which the data for this study were obtained involved six clinical centers: the Cleveland Clinic Foundation, Dartmouth-Hitchcock Medical Center, the University of Southern California/Southern California Permanente Medical Group, the University of Iowa, University of Minnesota, and the University of North Carolina Dartmouth was the coordinating center. Human subjects committees at each center approved the study protocol; an independent safety and data monitoring committee reviewed the study semi-annually.
Eligible patients were less than eighty years old, in good health, and without a history of familial polyposis, invasive large bowel cancer, malabsorption syndromes, or any condition which might be worsened by supplemental calcium. We aimed to randomize 860 subjects to have 80% power to detect a 25% reduction in […].
We reviewed data from 2,918 apparently eligible patients. […] We assigned these subjects to calcium or placebo using computer-generated random numbers, blocking by study center. […] Study tablets contained 3000 mg of calcium carbonate (1200 mg of elemental calcium); or, an identical-appearing cellulose/sucrose placebo. The trial was double-blind; neither subjects nor study staff were told the subjects' treatment assignments.
At enrollment and at the time of each of two follow-up colonoscopies, we obtained venous blood specimens in mineral-free tubes. Serum was initially stored at −20° C. or lower, pending shipment to Dartmouth for storage at −70° C. until analysis. At enrollment and the end of the study, we also assessed subjects' diet with a validated food frequency questionnaire (Block et al., Am. J. Epidemiol., 124:453-69, 1986). Every six months, we sent patients questionnaires regarding adherence to study agents; use of medications, over-the-counter drugs and nutritional supplements; and the occurrence of symptoms, illnesses, and hospitalizations. Recruitment into the study began in November 1988 and ended in April 1992. Follow-up ended in December 1996.
To summarize the association between prostate cancer and treatment assignment, we used Kaplan-Meier survival curves as well as odds ratios (OR's) and 95% CI's, computed using logistic regression with adjustment for age, clinical center, and baseline dietary calcium. OR's were calculated for the period from randomization to end of treatment and, to accommodate possible delays in cancer detection and/or latent treatment effects, for the period from randomization to end of treatment plus 12 months (i.e., five years).

[3] = 913 subjects with at least one study examination, calcium carbonate 3 gm daily vs placebo

Compound	actuarial overall 5-year survival rate (prostate cancer [1]) [%]	adjusted ratio of the average numbers of adenomas (colorectal adenomas; [3])	adjusted risk ratio of any adenoma recurrence (colorectal adenomas; [3])	toxicity associated with supplementation (colorectal adenomas; calcium carbonate 3 gm daily)	men diagnosed with prostate cancer (prostate cancer [2]; after five years of follow-up) [men]	men diagnosed with prostate cancer (prostate cancer [2]; after four years of follow-up) [men]	risk of prostate cancer (prostate cancer [2]; assignment to calcium supplementation vs placebo)	incidence of prostate cancer, Kaplan-Meier curves versus placebo (prostate cancer [2]; by year three of follow-up)	adjusted odds ratio for prostate cancer (prostate cancer [2]; five-year follow-up (end of treatment plus 12 months))	toxicity (prostate cancer [2])	toxicity (prostate cancer [2]; listed as calcium carbonate)	adjusted odds ratio for prostate cancer (prostate cancer [2]; four-year treatment period, adjusted for age, clinical center, baseline dietary calcium)
CC(C)C[C@H](NC(=O)[C@@H](COC(C)(C)C)NC(=O)[C@H](Cc1ccc(O)cc1)NC(=O)[C@H](CO)NC(=O)[C@H](Cc1c[nH]c2ccccc12)NC(=O)[C@H](Cc1cnc[nH]1)NC(=O)[C@@H]1CCC(=O)N1)C(=O)N[C@@H](CCCNC(=N)N)C(=O)N1CCC[C@H]1C(=O)NNC(N)=O [goserelin]	75	–	–	–	–	–	–	–	–	–	–	–
O=C([O-])[O-].[Ca+2] [calcium, calcium carbonate]	–	0.76	0.85	No toxicity	11	8	statistically significant reduction	lower incidence	0.43	without toxicity	minimal	0.54

Source: patent publication US20080113041A1, “CALCIUM SUPPLEMENTATION TO REDUCE PROSTATE CANCER RISK” (Trustees of Dartmouth College, priority 2001, published 2008)
